Test results as given in ChEMBL document CHEMBL1153306, “Relation between lipophilicity of alkyl gallates and antifungal activity against yeasts and filamentous fungi” (Bioorg Med Chem Lett, 2009).
Values after ≈ are worked out from the molar mass of the structure shown.

Legend:
Format in all cases: functional
[1] = system: Candida tropicalis; test: Antifungal activity against Candida tropicalis after 48 hrs by broth microdilution technique
[2] = system: Saccharomyces cerevisiae; test: Antifungal activity against Saccharomyces cerevisiae after 48 hrs by broth microdilution technique
[3] = system: Aspergillus flavus; test: Antimicrobial activity against Aspergillus flavus after 48 hrs by broth microdilution technique
[4] = system: Trichophyton rubrum; test: Antimicrobial activity against Trichophyton rubrum after 48 hrs by broth microdilution technique
[5] = system: Aspergillus fumigatus; test: Antimicrobial activity against Aspergillus fumigatus after 48 hrs by broth microdilution technique
[6] = system: Epidermophyton floccosum; test: Antimicrobial activity against Epidermophyton floccosum after 48 hrs by broth microdilution technique
[7] = system: Nannizzia gypsea; test: Antimicrobial activity against Microsporum gypseum after 48 hrs by broth microdilution technique
[8] = system: Trichophyton mentagrophytes; test: Antimicrobial activity against Trichophyton mentagrophytes after 48 hrs by broth microdilution technique
[9] = system: Cryptococcus neoformans; test: Antifungal activity against Cryptococcus neoformans after 48 hrs by broth microdilution technique
[10] = system: Candida albicans; test: Antifungal activity against Candida albicans after 48 hrs by broth microdilution technique
[11] = system: Aspergillus niger; test: Antimicrobial activity against Aspergillus niger after 48 hrs by broth microdilution technique

MIC [1] | MIC [2] | MIC [3] | MIC [4] | MIC [5] | MIC [6] | MIC [7] | MIC [8] | MIC [9] | MIC [10] | MIC [11] | SMILES
> 250 µg/mL | > 250 µg/mL | > 250 µg/mL | 50 µg/mL (≈ 221 µM) | > 250 µg/mL | 100 µg/mL (≈ 442 µM) | 50 µg/mL (≈ 221 µM) | 100 µg/mL (≈ 442 µM) | > 250 µg/mL | > 250 µg/mL | > 250 µg/mL | CCCCOC(=O)c1cc(O)c(O)c(O)c1 [BUTYL GALLATE]
100 µg/mL (≈ 322 µM) | 100 µg/mL (≈ 322 µM) | > 250 µg/mL | 12.5 µg/mL (≈ 40.3 µM) | 100 µg/mL (≈ 322 µM) | 25 µg/mL (≈ 80.5 µM) | 50 µg/mL (≈ 161 µM) | 50 µg/mL (≈ 161 µM) | 50 µg/mL (≈ 161 µM) | 100 µg/mL (≈ 322 µM) | > 250 µg/mL | CCCCCCCCCCOC(=O)c1cc(O)c(O)c(O)c1 [DECYL GALLATE]
> 250 µg/mL | > 250 µg/mL | > 250 µg/mL | 50 µg/mL (≈ 148 µM) | > 250 µg/mL | – | 100 µg/mL (≈ 295 µM) | 50 µg/mL (≈ 148 µM) | > 250 µg/mL | > 250 µg/mL | > 250 µg/mL | CCCCCCCCCCCCOC(=O)c1cc(O)c(O)c(O)c1 [DODECYL GALLATE]
> 250 µg/mL | > 250 µg/mL | > 250 µg/mL | 100 µg/mL (≈ 505 µM) | > 250 µg/mL | 100 µg/mL (≈ 505 µM) | 100 µg/mL (≈ 505 µM) | 100 µg/mL (≈ 505 µM) | > 250 µg/mL | > 250 µg/mL | > 250 µg/mL | CCOC(=O)c1cc(O)c(O)c(O)c1 [ETHYLGALLATE]
> 250 µg/mL | > 250 µg/mL | > 250 µg/mL | > 250 µg/mL | > 250 µg/mL | > 250 µg/mL | > 250 µg/mL | > 250 µg/mL | > 250 µg/mL | > 250 µg/mL | > 250 µg/mL | CCOC(=O)c1cc(OC)c(OC)c(OC)c1 [ETHYLTRIMETHOXY BENZOATE]
> 250 µg/mL | > 250 µg/mL | > 250 µg/mL | 100 µg/mL (≈ 543 µM) | > 250 µg/mL | 100 µg/mL (≈ 543 µM) | 100 µg/mL (≈ 543 µM) | 100 µg/mL (≈ 543 µM) | > 250 µg/mL | > 250 µg/mL | > 250 µg/mL | COC(=O)c1cc(O)c(O)c(O)c1 [GALLIC ACID METHYL ESTER]
100 µg/mL (≈ 373 µM) | 100 µg/mL (≈ 373 µM) | 100 µg/mL (≈ 373 µM) | 6.25 µg/mL (≈ 23.3 µM) | 100 µg/mL (≈ 373 µM) | 6.25 µg/mL (≈ 23.3 µM) | 6.25 µg/mL (≈ 23.3 µM) | 12.5 µg/mL (≈ 46.6 µM) | 62.5 µg/mL (≈ 233 µM) | 100 µg/mL (≈ 373 µM) | 100 µg/mL (≈ 373 µM) | CCCCCCCOC(=O)c1cc(O)c(O)c(O)c1 [HEPTYL GALLATE]

SMILES | MIC [1] | MIC [2] | MIC [3] | MIC [4] | MIC [5] | MIC [6] | MIC [7] | MIC [8] | MIC [9] | MIC [10] | MIC [11]
CC(=O)Oc1cc(C(=O)O)cc(OC(C)=O)c1OC(C)=O [3,4,5-TRIACETOXYBENZOIC ACID] | > 250 µg/mL | > 250 µg/mL | > 250 µg/mL | > 250 µg/mL | > 250 µg/mL | > 250 µg/mL | > 250 µg/mL | > 250 µg/mL | > 250 µg/mL | > 250 µg/mL | > 250 µg/mL
COc1cc(C(=O)O)cc(OC)c1OC [3,4,5-TRIMETHOXYBENZOIC ACID] | > 250 µg/mL | > 250 µg/mL | > 250 µg/mL | > 250 µg/mL | > 250 µg/mL | > 250 µg/mL | > 250 µg/mL | > 250 µg/mL | > 250 µg/mL | > 250 µg/mL | > 250 µg/mL
C[C@@H]1[C@H](O)[C@@H](C)/C=C/C=C/C=C/C=C/C=C/C=C/C=C/[C@H](O[C@@H]2O[C@H](C)[C@@H](O)[C@H](N)[C@@H]2O)C[C@@H]2O[C@](O)(C[C@@H](O)C[C@@H](O)[C@H](O)CC[C@@H](O)C[C@@H](O)CC(=O)O[C@H]1C)C[C@H](O)[C@H]2C(=O)O [AMPHOTERICIN B] | 0.5 µg/mL (≈ 0.541 µM) | 0.5 µg/mL (≈ 0.541 µM) | 0.5 µg/mL (≈ 0.541 µM) | – | 0.5 µg/mL (≈ 0.541 µM) | – | – | – | 0.25 µg/mL (≈ 0.271 µM) | 0.78 µg/mL (≈ 0.844 µM) | 0.5 µg/mL (≈ 0.541 µM)
O=C(O)c1cc(O)c(O)c(O)c1 [GALLIC ACID] | > 250 µg/mL | > 250 µg/mL | > 250 µg/mL | 100 µg/mL (≈ 588 µM) | > 250 µg/mL | 100 µg/mL (≈ 588 µM) | > 250 µg/mL | 125 µg/mL (≈ 735 µM) | > 250 µg/mL | > 250 µg/mL | > 250 µg/mL
